ChEMBL document CHEMBL1629662, “Antimicrobial activity of prulifloxacin tested against a worldwide collection of gastroenteritis-producing pathogens, including those causing traveler's diarrhea” (2009)

Experiments:
Campylobacter jejuni [1] = test: Antibacterial activity against Campylobacter jejuni by broth microdilution method; type: functional
Campylobacter jejuni [2] = test: Antibacterial activity against Campylobacter jejuni assessed as percent resistant isolates by broth microdilution method; type: functional; settings: pooled result: one value given for 2 cell lines, strains, targets or settings
Campylobacter coli = test: Antibacterial activity against Campylobacter coli by broth microdilution method; type: functional
Campylobacter jejuni [3] = test: Antibacterial activity against Campylobacter jejuni assessed as percent susceptible isolates by broth microdilution method; type: functional; settings: pooled result: one value given for 2 cell lines, strains, targets or settings
Plesiomonas shigelloides = test: Antibacterial activity against Plesiomonas shigelloides by broth microdilution method; type: functional
Salmonella typhimurium = test: Antibacterial activity against Salmonella enterica serovar Typhimurium by broth microdilution method; type: functional, Salmonella enterica subsp. enterica serovar Typhimurium
Aeromonas hydrophila = test: Antibacterial activity against Aeromonas hydrophila by broth microdilution method; type: functional
Shigella sonnei = test: Antibacterial activity against Shigella sonnei by broth microdilution method; type: functional
Salmonella enteritidis = test: Antibacterial activity against Salmonella enterica serovar Enteritidis by broth microdilution method; type: functional, Salmonella enterica subsp. enterica serovar Enteritidis
Vibrio cholerae = test: Antibacterial activity against Vibrio cholerae by broth microdilution method; type: functional
Vibrio alginolyticus = test: Antibacterial activity against Vibrio alginolyticus by broth microdilution method; type: functional
Shigella dysenteriae = test: Antibacterial activity against Shigella dysenteriae by broth microdilution method; type: functional
[4] = system: Yersinia pseudotuberculosis; test: Antibacterial activity against Yersinia pseudotuberculosis by broth microdilution method; type: functional
Aeromonas veronii = test: Antibacterial activity against Aeromonas veronii by broth microdilution method; type: functional
Aeromonas sobria = test: Antibacterial activity against Aeromonas sobria by broth microdilution method; type: functional
Vibrio sp. = test: Antibacterial activity against Vibrio sp. by broth microdilution method; type: functional
Shigella boydii = test: Antibacterial activity against Shigella boydii by broth microdilution method; type: functional
Vibrio fluvialis = test: Antibacterial activity against Vibrio fluvialis by broth microdilution method; type: functional
Escherichia coli = test: Antibacterial activity against Escherichia coli by broth microdilution method; type: functional
Yersinia enterocolitica = test: Antibacterial activity against Yersinia enterocolitica by broth microdilution method; type: functional
Vibrio parahaemolyticus = test: Antibacterial activity against Vibrio parahaemolyticus by broth microdilution method; type: functional
Shigella flexneri = test: Antibacterial activity against Shigella flexneri by broth microdilution method; type: functional
Aeromonas caviae = test: Antibacterial activity against Aeromonas caviae by broth microdilution method; type: functional
Vibrio vulnificus = test: Antibacterial activity against Vibrio vulnificus by broth microdilution method; type: functional

CC[C@H]1OC(=O)[C@H](C)[C@@H](O[C@H]2C[C@@](C)(OC)[C@@H](O)[C@H](C)O2)[C@H](C)[C@@H](O[C@@H]2O[C@H](C)C[C@H](N(C)C)[C@H]2O)[C@](C)(O)C[C@@H](C)C(=O)[C@H](C)[C@@H](O)[C@]1(C)O [ERYTHROMYCIN]
100%: Activity (Campylobacter jejuni [3])
0%: Activity (Campylobacter jejuni [2])
0.25 µg/mL: MIC50 (Campylobacter jejuni [1]) | MIC50 (Campylobacter coli)
0.5 µg/mL: MIC90 (Campylobacter jejuni [1]) | MIC90 (Campylobacter coli)

CO[C@H]1/C=C/O[C@@]2(C)Oc3c(C)c(O)c4c(O)c(c5c(nc6cc(C)ccn65)c4c3C2=O)NC(=O)/C(C)=C\C=C\[C@H](C)[C@H](O)[C@@H](C)[C@@H](O)[C@@H](C)[C@H](OC(C)=O)[C@@H]1C [RIFAXIMIN]
4 µg/mL: MIC50 (Aeromonas hydrophila) | MIC50 [4] | MIC50 (Aeromonas veronii) | MIC50 (Aeromonas sobria) | MIC50 (Yersinia enterocolitica) | MIC50 (Aeromonas caviae)
1 µg/mL: MIC90 (Vibrio cholerae) | MIC90 (Vibrio alginolyticus) | MIC90 (Vibrio sp.) | MIC90 (Vibrio fluvialis) | MIC90 (Vibrio parahaemolyticus) | MIC90 (Vibrio vulnificus)
32 µg/mL: MIC50 (Campylobacter jejuni [1]) | MIC90 (Campylobacter jejuni [1]) | MIC50 (Campylobacter coli) | MIC90 (Campylobacter coli)
0.5 µg/mL: MIC50 (Vibrio cholerae) | MIC50 (Vibrio alginolyticus) | MIC50 (Vibrio sp.) | MIC50 (Vibrio fluvialis) | MIC50 (Vibrio parahaemolyticus) | MIC50 (Vibrio vulnificus)
8 µg/mL: MIC (Plesiomonas shigelloides) | MIC50 (Plesiomonas shigelloides) | MIC50 (Salmonella typhimurium) | MIC90 (Aeromonas hydrophila) | MIC50 (Shigella sonnei) | MIC50 (Salmonella enteritidis) | MIC50 (Shigella dysenteriae) | MIC90 [4] | MIC90 (Aeromonas veronii) | MIC90 (Aeromonas sobria) | MIC50 (Shigella boydii) | MIC50 (Escherichia coli) | MIC90 (Yersinia enterocolitica) | MIC50 (Shigella flexneri) | MIC90 (Aeromonas caviae)
16 µg/mL: MIC90 (Salmonella typhimurium) | MIC90 (Shigella sonnei) | MIC90 (Salmonella enteritidis) | MIC90 (Shigella dysenteriae) | MIC90 (Shigella boydii) | MIC90 (Escherichia coli) | MIC90 (Shigella flexneri)
